Assays:
[1] = target: MDR1 (P-glycoprotein) (Homo sapiens (Human), UniProt P08183); assay: MDR1-MDCK permeability, bidirectional assay; assay type: in vitro ADME; details: MDR1-MDCK cells, efflux ratio, 1 μM, HBSS pH 7.4
Procedure: The blood brain barrier (BBB) separates circulating blood from the extracellular fluid of the central nervous system (CNS). The passive membrane permeability (Papp) and MDR1 (P-glycoprotein) substrate efflux potential were determined using the MDR1-MDCK cell line as an in vitro model of the effective permeability of a compound through the BBB. A bidirectional assay was conducted in pre-plated MDR1-MDCK cells using a 12 or 96-well plate in the absence or presence of MDR1 inhibitor (GF120918 or Valspodar). Assays were run in duplicate in transport buffer (HBSS, pH 7.4) for 90 or 120 min (minutes) at 37° C., using a test article concentration of 1 μM. […] Papp (apparent permeability expressed in cm/sec [centimeter/second]) values were calculated according to the following equation:
[formula] where VR is the solution volume in the receiver chamber (apical or basolateral side), Area is the surface area for the insert membrane), Time is incubation time expressed in seconds, CR is the peak area ratio (analyte/IS) in the receiver chamber, CA is the average of the initial and final concentrations in the donor chamber, and CO is the initial peak area ratio in the donor chamber. Papp was determined in both the apical to basolateral (A→B) and basolateral to apical (B→A) directions. […]

[2] = Metabolic stability in human liver microsomes; assay type: in vitro ADME; details: Table 5; 1 μM compound, 0.5 mg/mL protein, projected human hepatic clearance, well-stirred model
Procedure: Metabolic stability of compounds was evaluated in human liver microsomes (from Corning or XenoTech, LLC) using a 96-well plate assay format. Compounds were incubated at 37° C. at 1 μM final concentration in the microsomal matrix (0.5 mg/mL total protein) in the presence or absence of NADPH cofactor. An NADPH regenerating system, comprised of NADP, MgCl2, isocitric acid, and isocitrate dehydrogenase, was used in the assay. Enzymatic reactions were conducted for 0, 5, 10, 20, 30, or 60 min before termination by addition of acetonitrile containing tolbutamide and labetalol internal standards (100 ng/mL). After shaking for 10 min, plates were subjected to centrifugation (4000 rpm at 4° C.) for 20 min and supernatants were mixed 1:3 with HPLC grade water. Samples were analyzed by LC-MS/MS using appropriate MRM transitions for each analyte and internal standard (IS). Analyte/IS peak area ratios were used to determine percent compound remaining at each time point. Intrinsic clearance (Clint; expressed as mL·min^−1·mg^−1) was calculated from the first order elimination constant (k, min^−1) of test article decay and the volume of the incubation. These values were scaled to intrinsic organ clearance (Clint) using human specific scaling factors (48.8 mg microsomal protein per g liver; 25.7 g liver per kg body weight). […]

MDR1 (P-glycoprotein), sequence (P08183 whole entry): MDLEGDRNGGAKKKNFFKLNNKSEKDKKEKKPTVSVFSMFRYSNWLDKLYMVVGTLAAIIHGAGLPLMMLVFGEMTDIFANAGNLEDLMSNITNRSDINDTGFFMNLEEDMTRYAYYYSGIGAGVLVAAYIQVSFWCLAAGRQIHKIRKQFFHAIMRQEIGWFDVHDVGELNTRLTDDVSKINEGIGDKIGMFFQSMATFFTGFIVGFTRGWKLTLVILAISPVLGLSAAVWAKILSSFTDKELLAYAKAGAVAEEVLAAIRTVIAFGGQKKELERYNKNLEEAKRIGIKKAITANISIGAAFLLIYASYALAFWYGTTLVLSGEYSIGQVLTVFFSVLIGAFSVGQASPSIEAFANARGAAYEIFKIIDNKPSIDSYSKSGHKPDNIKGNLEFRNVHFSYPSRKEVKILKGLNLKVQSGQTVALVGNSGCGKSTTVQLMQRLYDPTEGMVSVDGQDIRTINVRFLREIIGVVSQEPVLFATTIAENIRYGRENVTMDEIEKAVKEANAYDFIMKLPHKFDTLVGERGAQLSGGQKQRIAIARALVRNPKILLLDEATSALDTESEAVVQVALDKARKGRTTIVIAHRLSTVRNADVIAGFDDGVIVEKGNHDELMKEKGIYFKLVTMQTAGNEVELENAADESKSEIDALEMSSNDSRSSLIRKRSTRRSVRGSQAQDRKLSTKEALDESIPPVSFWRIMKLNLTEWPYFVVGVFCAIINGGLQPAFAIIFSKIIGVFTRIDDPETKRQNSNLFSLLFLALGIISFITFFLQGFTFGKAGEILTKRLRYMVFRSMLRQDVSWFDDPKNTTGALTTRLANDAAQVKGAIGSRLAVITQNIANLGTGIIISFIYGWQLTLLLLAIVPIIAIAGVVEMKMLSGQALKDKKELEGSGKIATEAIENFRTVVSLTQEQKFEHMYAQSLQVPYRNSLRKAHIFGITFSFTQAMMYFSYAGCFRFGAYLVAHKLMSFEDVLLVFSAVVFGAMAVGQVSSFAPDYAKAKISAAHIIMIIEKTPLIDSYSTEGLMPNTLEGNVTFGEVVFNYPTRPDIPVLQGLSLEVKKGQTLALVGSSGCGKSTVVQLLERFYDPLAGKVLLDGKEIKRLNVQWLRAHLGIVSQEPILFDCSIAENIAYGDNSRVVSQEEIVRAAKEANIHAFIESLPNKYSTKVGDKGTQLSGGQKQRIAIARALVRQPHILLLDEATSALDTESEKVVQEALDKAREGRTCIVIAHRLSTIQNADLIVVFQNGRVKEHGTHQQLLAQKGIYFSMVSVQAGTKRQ

## CCNc1nc(Nc2cc(C3(C)CCn4ncnc43)nn2C2CC2)ncc1C(F)(F)F (single isomer, unassigned) [Compound 172]
[1]
  MDR1 ER: 42

## CNc1nc(Nc2cn(C(C)(C)c3ncn(C)n3)nc2C)ncc1C(F)(F)F [Compound 218]
[2]
  Human liver microsomes CLhep: 0 mL/min/kg

— patent US10590114B2, “Compounds, compositions, and methods” (Denali Therapeutics Inc., priority 2016, dated 2020)
